Values of other authors, collected in PubChem BioAssay AID1259409 (Chemical Carcinogenesis Research Information System (CCRIS), 2018).
Several values for one entry are separate records, joined by “and”; a condition that tells them apart may be missing. Identical values can stand only once.

Tested on: rodent chemically induced tumor inhibition, incidence and multiplicity
Experiment: CCRIS tumor inhibitor studies
Details: 57-97-6

## CC(C)Cn1c(=O)n(C)c(=O)c2[nH]cnc21
Carcinogen: 7,12-DIMETHYLBENZ[A]ANTHRACENE, Dose [Inhibitor]: 5 UMOL 2/WK FOR 48 WK APPLIED AT LEAST 5 MIN BEFORE AND TO SAME AREA OF SKIN AS EACH PROMOTER DOSE, STARTING 2 WK AFTER, Route [Inhibitor]: DERMAL, Species: MOUSE, Strain/Sex: CD-1/FEMALE, Target Tissue: Type of Lesion: SKIN: CARCINOMA, Dose [Carcinogen]: 0.1 UMOL ONCE 2 WK PRIOR TO FIRST DOSE OF INHIBITOR, Promoter: 12-O-TETRADECANOYLPHORBOL-13-ACETATE;16561-29-8
  tumour outcome (control, treated, inhibition, significance): 35%, 19%, 46%, not calculated
Carcinogen: 7,12-DIMETHYLBENZ[A]ANTHRACENE, Dose [Inhibitor]: 5 UMOL 2/WK FOR 48 WK APPLIED AT LEAST 5 MIN BEFORE AND TO SAME AREA OF SKIN AS EACH PROMOTER DOSE, STARTING 2 WK AFTER, Route [Inhibitor]: DERMAL, Species: MOUSE, Strain/Sex: CD-1/FEMALE, Target Tissue: Type of Lesion: SKIN: PAPILLOMA, Dose [Carcinogen]: 0.1 UMOL ONCE 2 WK PRIOR TO FIRST DOSE OF INHIBITOR, Promoter: 12-O-TETRADECANOYLPHORBOL-13-ACETATE;16561-29-8
  tumour outcome (control, treated, inhibition, significance): 100%, 82%, 18%, not calculated
Carcinogen: 7,12-DIMETHYLBENZ[A]ANTHRACENE, Dose [Inhibitor]: 5 UMOL APPLIED 2/WK THROUGHOUT THE STUDY AT LEAST 5 MIN BEFORE AND TO SAME AREA OF SKIN AS EACH DOSE OF PROMOTER STARTIN, Route [Inhibitor]: DERMAL, Species: MOUSE, Strain/Sex: CD-1/FEMALE, Target Tissue: Type of Lesion: SKIN: CARCINOMA, Dose [Carcinogen]: 0.1 UMOL APPLIED ONCE, Promoter: 12-O-TETRADECANOYLPHORBOL-13-ACETATE, 16561-29-8
  tumour outcome (control, treated, inhibition, significance): 35%, 19%, 46%, not calculated
Carcinogen: 7,12-DIMETHYLBENZ[A]ANTHRACENE, Dose [Inhibitor]: 5 UMOL APPLIED 2/WK THROUGHOUT THE STUDY AT LEAST 5 MIN BEFORE AND TO SAME AREA OF SKIN AS EACH DOSE OF PROMOTER STARTIN, Route [Inhibitor]: DERMAL, Species: MOUSE, Strain/Sex: CD-1/FEMALE, Target Tissue: Type of Lesion: SKIN: PAPILLOMA, Dose [Carcinogen]: 0.1 UMOL APPLIED ONCE, Promoter: 12-O-TETRADECANOYLPHORBOL-13-ACETATE, 16561-29-8
  tumour outcome (control, treated, inhibition, significance): 100%, 82%, 18%, not calculated
Carcinogen: 7,12-DIMETHYLBENZ[A]ANTHRACENE, Dose [Inhibitor]: 10 UMOL 1/WK FOR 30 WK APPLIED AT LEAST 5 MIN PRIOR TO EACH CARCINOGEN TREATMENT (STUDY DURATION: 30 WK), Route [Inhibitor]: DERMAL, Species: MOUSE, Strain/Sex: CD-1/FEMALE, Target Tissue: Type of Lesion: SKIN: CARCINOMA, Dose [Carcinogen]: 0.2 UMOL 1/WK FOR 30 WK, Promoter: NONE USED
  tumour outcome (control, treated, inhibition, significance): 59%, 42%, 29%, not significant
Carcinogen: 7,12-DIMETHYLBENZ[A]ANTHRACENE, Dose [Inhibitor]: 10 UMOL 1/WK FOR 30 WK APPLIED AT LEAST 5 MIN PRIOR TO EACH CARCINOGEN TREATMENT (STUDY DURATION: 30 WK), Route [Inhibitor]: DERMAL, Species: MOUSE, Strain/Sex: CD-1/FEMALE, Target Tissue: Type of Lesion: SKIN: PAPILLOMA, Dose [Carcinogen]: 0.2 UMOL ONCE 1/WK FOR 30 WK, Promoter: NONE USED
  tumour outcome (control, treated, inhibition, significance): 100%, 100%, 0%, not significant
Carcinogen: 7,12-DIMETHYLBENZ[A]ANTHRACENE, Dose [Inhibitor]: 10 UMOL APPLIED 1/WK THROUGHOUT THE STUDY AT LEAST 5 MIN BEFORE AND TO SAME AREA OF SKIN AS EACH APPLICATION OF CARCINOG, Route [Inhibitor]: DERMAL, Species: MOUSE, Strain/Sex: CD-1/FEMALE, Target Tissue: Type of Lesion: SKIN: CARCINOMA, Dose [Carcinogen]: 0.2 UMOL 1/WK FOR 30 WK, Promoter: NONE USED
  tumour outcome (control, treated, inhibition, significance): 59%, 42%, 29%, not significant
Carcinogen: 7,12-DIMETHYLBENZ[A]ANTHRACENE, Dose [Inhibitor]: 10 UMOL APPLIED 1/WK THROUGHOUT THE STUDY AT LEAST 5 MIN BEFORE AND TO SAME AREA OF SKIN AS EACH APPLICATION OF CARCINOG, Route [Inhibitor]: DERMAL, Species: MOUSE, Strain/Sex: CD-1/FEMALE, Target Tissue: Type of Lesion: SKIN: PAPILLOMA, Dose [Carcinogen]: 0.2 UMOL 1/WK FOR 30 WK, Promoter: NONE USED
  tumour outcome (control, treated, inhibition, significance): 100%, 100%, 0%, not significant
Carcinogen: 7,12-DIMETHYLBENZ[A]ANTHRACENE, Dose [Inhibitor]: 10 UMOL APPLIED ONCE AT LEAST 5 MIN PRIOR TO CARCINOGEN DOSE (STUDY DURATION: 34 WK), Route [Inhibitor]: DERMAL, Species: MOUSE, Strain/Sex: CD-1/FEMALE, Target Tissue: Type of Lesion: SKIN: CARCINOMA, Dose [Carcinogen]: 3.6 UMOL ONCE, Promoter: NONE USED
  outcome: 0%, 4%, not calculated

## C[Se+](C)CC(=O)[O-]
Carcinogen: 7,12-DIMETHYLBENZ[A]ANTHRACENE, Dose [Inhibitor]: 0, 0.000025 MOL/KG DIET BEGINNING 2 WK PRIOR TO CARCINOGEN AND CONTINUED FOR STUDY DURATION (STUDY DURATION: 25 WK), Route [Inhibitor]: ORAL, Species: RAT, Strain/Sex: CD-1/FEMALE, Target Tissue: Type of Lesion: MAMMARY GLAND: ADENOCARCINOMA, Dose [Carcinogen]: 10 MG ONCE, Promoter: NONE USED
  tumour outcome (control, treated, inhibition, significance): 20/25 (80%), 11/25 (44%), 45%, p<0.05

## CCCCCCCCCCCC(=O)OCC(COC(=O)CCCCCCCCCCC)OC(=O)CCCCCCCCCCC
Carcinogen: DIMETHYLBENZANTHRACENE, Dose [Inhibitor]: APPLIED 3 MIN POST EACH PROMOTER DOSE 3/WK FOR 20 WK BEGINNING 3 D POST CARCINOGEN DOSE (STUDY DURATION: 20 WK), Route [Inhibitor]: DERMAL, Species: MOUSE, Strain/Sex: SWISS/?, Target Tissue: Type of Lesion: SKIN: TUMOR, Dose [Carcinogen]: 250 UG/0.25 ML ONCE, Promoter: CROTON OIL, 8001-28-3
  tumour outcome (control, treated, inhibition, significance): 100%, 0%, 100%, not calculated

## CC(=O)OC12C[C@@H](C)[C@@]3(O)[C@@H](C=C(CO)C[C@]4(O)C(=O)C(C)=C[C@@H]34)C1C2(C)C (some centres not stated)
Carcinogen: 7,12-DIMETHYLBENZ[A]ANTHRACENE, Dose [Inhibitor]: 0, 256 NMOL 15 D POST INITIATION DOSE FOLLOWED BY 2.56 NMOL 2/WK DURING WK 3-22 APPLIED 15 MIN PRIOR TO EACH PROMOTION D, Route [Inhibitor]: DERMAL, Species: MOUSE, Strain/Sex: CD-1/FEMALE, Target Tissue: Type of Lesion: SKIN: PAPILLOMA, Dose [Carcinogen]: 20 NMOL IN 200 µL ACETONE ONCE
  tumour outcome (control, treated, inhibition, significance): 100%, 95%, 5%, not calculated
Carcinogen: 7,12-DIMETHYLBENZ[A]ANTHRACENE, Dose [Inhibitor]: 0, 256 NMOL 15 D POST INITIATION DOSE FOLLOWED BY 2.56 UMOL 2/WK DURING WK 3-22 APPLIED 15 MIN PRIOR TO EACH PROMOTION D, Route [Inhibitor]: DERMAL, Species: MOUSE, Strain/Sex: CD-1/FEMALE, Target Tissue: Type of Lesion: SKIN: PAPILLOMA, Dose [Carcinogen]: 20 NMOL IN 200 µL ACETONE ONCE
  tumour outcome (control, treated, inhibition, significance): 94%, 40%, 57%, not calculated
Carcinogen: 7,12-DIMETHYLBENZ[A]ANTHRACENE, Dose [Inhibitor]: 0, 256 NMOL 15 D POST INITIATION DOSE FOLLOWED BY 25.6 NMOL 2/WK DURING WK 3-22 APPLIED 15 MIN PRIOR TO EACH PROMOTION D, Route [Inhibitor]: DERMAL, Species: MOUSE, Strain/Sex: CD-1/FEMALE, Target Tissue: Type of Lesion: SKIN: PAPILLOMA, Dose [Carcinogen]: 20 NMOL IN 200 µL ACETONE ONCE
  tumour outcome (control, treated, inhibition, significance): 94%, 83%, 12%, not calculated and 100%, 80%, 20%, not calculated
Carcinogen: 7,12-DIMETHYLBENZ[A]ANTHRACENE, Dose [Inhibitor]: 0, 256 NMOL 15 D POST INITIATION DOSE FOLLOWED BY 25.6 PMOL 2/WK DURING WK 3-22 APPLIED 15 MIN PRIOR TO EACH PROMOTION D, Route [Inhibitor]: DERMAL, Species: MOUSE, Strain/Sex: CD-1/FEMALE, Target Tissue: Type of Lesion: SKIN: PAPILLOMA, Dose [Carcinogen]: 20 NMOL IN 200 µL ACETONE ONCE
  tumour outcome (control, treated, inhibition, significance): 100%, 97%, 3%, not calculated
Carcinogen: 7,12-DIMETHYLBENZ[A]ANTHRACENE, Dose [Inhibitor]: 0, 256 NMOL 15 D POST INITIATION DOSE FOLLOWED BY 256 NMOL 2/WK DURING WK 3-22 APPLIED 15 MIN PRIOR TO EACH PROMOTION DO, Route [Inhibitor]: DERMAL, Species: MOUSE, Strain/Sex: CD-1/FEMALE, Target Tissue: Type of Lesion: SKIN: PAPILLOMA, Dose [Carcinogen]: 20 NMOL IN 200 µL ACETONE ONCE
  tumour outcome (control, treated, inhibition, significance): 94%, 33%, 65%, not calculated and 100%, 58%, 42%, not calculated
Carcinogen: 7,12-DIMETHYLBENZ[A]ANTHRACENE, Dose [Inhibitor]: 0, 256 NMOL 15 D POST INITIATION DOSE FOLLOWED BY 256 PMOL 2/WK DURING WK 3-22 APPLIED 15 MIN PRIOR TO EACH PROMOTION DO, Route [Inhibitor]: DERMAL, Species: MOUSE, Strain/Sex: CD-1/FEMALE, Target Tissue: Type of Lesion: SKIN: PAPILLOMA, Dose [Carcinogen]: 20 NMOL IN 200 µL ACETONE ONCE
  tumour outcome (control, treated, inhibition, significance): 100%, 100%, 0%, not significant
